{"source": "patent US11466044B2", "about": "(WAYNE STATE UNIVERSITY, priority 2017, dated 2022)", "key": {"[1]": {"system": "Enterobacter cloacae AG290", "assay": "MIC by broth microdilution, Enterobacter cloacae", "type": "cell-based", "settings": "strain AG290 Enterobacter cloacae"}, "[2]": {"system": "N. gonorrhoeae", "assay": "Disk diffusion, N. gonorrhoeae", "type": "cell-based"}, "[3]": {"system": "E coli wild type", "assay": "MIC by broth microdilution, wild type E coli", "type": "cell-based", "settings": "for MIC: Escherichia coli"}, "[4]": {"system": "MRSA", "assay": "MIC by broth microdilution, MRSA isolates", "type": "cell-based"}, "[5]": {"system": "Klebsiella pneumonia AG215", "assay": "MIC by broth microdilution, Klebsiella pneumonia", "type": "cell-based", "settings": "strain AG215 Klebsiella pneumonia"}, "[6]": {"system": "E coli carrying specific resistance determinants", "assay": "MIC by broth microdilution, E coli carrying specific resistance determinants", "type": "cell-based", "settings": "for MIC: Escherichia coli"}, "[7]": {"system": "M. smegmatis SZ380", "assay": "MIC by broth microdilution, M. smegmatis"}, "[8]": {"system": "Acinetobacter baumannii pittii AG225", "assay": "MIC by broth microdilution, Acinetobacter baumannii", "type": "cell-based", "settings": "strain AG225 Acinetobacter baumannii pittii"}, "[9]": {"system": "P aeruginosa", "assay": "MIC by broth microdilution, P aeruginosa isolates", "type": "cell-based, Pseudomonas aeruginosa"}, "[10]": {"system": "A1555G mutant mitochondrial ribosome (human chimeric)", "assay": "in-vitro translation assay, human chimeric ribosomes, A1555G mutant mitochondrial decoding site", "type": "biochemical", "settings": "human mitochondrial decoding site with A1555G point mutation; read-out: IC50 Mitoch. A1555G", "text": "(§1) The antiribosomal activity of these compounds was investigated with cell-free translation assays using both wild type bacterial ribosomes and hybrid ribosomes carrying eukaryotic decoding A sites enabling the prediction of selectivity."}, "[11]": {"system": "cytosolic ribosome (human chimeric)", "type": "biochemical", "settings": "ribosomes with a human cytosolic decoding site; read-out: IC50 Cytosolic", "text": "as §1"}, "[12]": {"system": "mitochondrial ribosome (human chimeric)", "type": "biochemical", "settings": "ribosomes with a human mitochondrial decoding site; read-out: IC50 Mitoch.", "text": "as §1"}, "[13]": {"system": "wild type bacterial ribosomes", "assay": "in-vitro translation assay, bacterial ribosomes", "type": "biochemical", "settings": "Mycobacterium smegmatis ribosomes; read-out: IC50 Bacterial", "text": "as §1"}, "[14]": {"system": "rabbit reticulocyte ribosomes", "assay": "in-vitro translation assay, rabbit reticulocyte ribosomes", "type": "biochemical", "settings": "mammalian cytosolic ribosomes (rabbit)"}}, "note": "Where two headings read alike, the source gives them in different places."}
{"smiles": "C[C@@H](O)[C@H]1O[C@H](O[C@H]2[C@H](O[C@@H]3O[C@H](CO)[C@@H](O[C@H]4O[C@@H](CN)[C@@H](O)[C@H](O)[C@H]4N)[C@H]3O)[C@@H](O)[C@H](N)C[C@@H]2N)[C@H](N)[C@@H](O)[C@@H]1O", "note": "[Compound 155, 6′(R)-6′-C-Methylparomomycin]", "values": [{"measurement": "MIC AG290 E. cloacae", "setting": "[1]", "value": "2 to 4", "unit": "µg/mL"}, {"measurement": "Disk diffusion 25 nmol N. gonorrhoeae", "setting": "[2]; 25 nmol", "value": 8, "unit": "mm"}, {"measurement": "MIC50 E coli BM13 (AG06) wt", "setting": "[3]; BM13 (AG06) wt, Table 2A (Example 2)", "value": 2, "unit": "µg/mL"}, {"measurement": "MIC50 E coli pH430 WT", "setting": "[3]; pH430 WT, Table 2B (Example 2)", "value": "1-2 μg/ml"}, {"measurement": "MIC50 E coli AG01", "setting": "[3]; strain AG01, Table 1 (Example 2)", "value": "8 to 16", "unit": "µg/mL"}, {"measurement": "MIC50 E coli AG03", "setting": "[3]; strain AG03, Table 1 (Example 2)", "value": "8 to 16", "unit": "µg/mL"}, {"measurement": "MIC50 E coli AG55", "setting": "[3]; strain AG55, Table 1 (Example 2)", "value": "8 to 16", "unit": "µg/mL"}, {"measurement": "MIC AG212 E. coli", "setting": "[3]; strain AG212 E. coli (ATCC25922)", "value": 4, "unit": "µg/mL"}, {"measurement": "MIC50 MRSA AG38", "setting": "[4]; strain AG38, Table 1 (Example 2)", "value": 8, "unit": "µg/mL"}, {"measurement": "MIC50 MRSA AG39", "setting": "[4]; strain AG39, Table 1 (Example 2)", "value": ">64", "unit": "µg/mL"}, {"measurement": "MIC50 MRSA AG42", "setting": "[4]; strain AG42, Table 1 (Example 2)", "value": ">64", "unit": "µg/mL"}, {"measurement": "MIC50 MRSA AG44", "setting": "[4]; strain AG44, Table 1 (Example 2)", "value": 4, "unit": "µg/mL"}, {"measurement": "MIC AG215 K. pneumon", "setting": "[5]", "value": 2, "unit": "µg/mL"}, {"measurement": "MIC50 E coli AG036 ANT(4′,4″)", "setting": "[6]; AG036 ANT(4′,4″), Table 2B (Example 2)", "value": ">32", "unit": "µg/mL"}, {"measurement": "MIC50 E coli AG037 APH(3′)-III", "setting": "[6]; AG037 APH(3′)-III, Table 2B (Example 2)", "value": ">32", "unit": "µg/mL"}, {"measurement": "MIC50 E coli AG103 armA", "setting": "[6]; AG103 armA, Table 2B (Example 2)", "value": 8, "unit": "µg/mL"}, {"measurement": "MIC50 E coli pH414 AAC(6′)-I", "setting": "[6]; pH414 AAC(6′)-I, Table 2B (Example 2)", "value": 2, "unit": "μg/ml"}, {"measurement": "MIC50 E coli pH415 AAC(6′)-II", "setting": "[6]; pH415 AAC(6′)-II, Table 2B (Example 2)", "value": 2, "unit": "μg/ml"}, {"measurement": "MIC50 E coli pH421 APH(3′)-I", "setting": "[6]; pH421 APH(3′)-I, Table 2B (Example 2)", "value": ">32", "unit": "μg/ml"}, {"measurement": "MIC50 E coli pH422 APH(3′)-II", "setting": "[6]; pH422 APH(3′)-II, Table 2B (Example 2)", "value": ">32", "unit": "μg/ml"}, {"measurement": "MIC50 E coli pH423 APH(3)-VI", "setting": "[6]; pH423 APH(3)-VI, Table 2B (Example 2)", "value": ">32", "unit": "μg/ml"}, {"measurement": "MIC50 E coli pH432 ANT(4′)", "setting": "[6]; pH432 ANT(4′), Table 2B (Example 2)", "value": 2, "unit": "μg/ml"}, {"measurement": "MIC SZ380 M. smegmatis", "setting": "[7]; strain SZ380 Mycobacterium smegmatis", "value": 4, "unit": "µg/mL"}, {"measurement": "MIC AG225 A. baumannii", "setting": "[8]", "value": 4, "unit": "µg/mL"}, {"measurement": "MIC AG220 P. aerugin", "setting": "[9]; strain AG220 Pseudomonas aeruginosa ATCC27853", "value": ">32", "unit": "µg/mL"}]}
{"smiles": "NCC1OC(OC2C(CNC=O)OC(OC3C(O)C(N)CC(N)C3OC3OC(CO)C(O)CC3N)C2O)C(N)C(O)C1O", "note": "(stereo not drawn) [DC153]", "values": [{"measurement": "IC50", "setting": "[10]", "value": 39, "unit": "µM"}, {"measurement": "IC50", "setting": "[11]", "value": 132, "unit": "µM"}, {"measurement": "IC50", "setting": "[12]", "value": 144, "unit": "µM"}, {"measurement": "MIC AG001 E. coli WT", "setting": "[3]; clinical isolate AG001, WT", "value": 4, "unit": "µg/mL"}, {"measurement": "MIC AG055 E. coli WT", "setting": "[3]; clinical isolate AG055, WT", "value": "2 to 4", "unit": "µg/mL"}, {"measurement": "MIC AG038 MRSA", "setting": "[4]; clinical isolate AG038", "value": 4, "unit": "µg/mL"}, {"measurement": "MIC AG039 MRSA AAC(6′)-I ANT(4′)-I", "setting": "[4]; clinical isolate AG039, AAC(6′)-I ANT(4′)-I", "value": ">128", "unit": "µg/mL"}, {"measurement": "MIC AG042 MRSA AAC(6′)-I ANT(4′)-I APH(2′)", "setting": "[4]; clinical isolate AG042, AAC(6′)-I ANT(4′)-I APH(2′)", "value": ">128", "unit": "µg/mL"}, {"measurement": "MIC AG044 MRSA", "setting": "[4]; clinical isolate AG044", "value": 4, "unit": "µg/mL"}, {"measurement": "MIC AG003 E. coli AAC(3)-II", "setting": "[6]; clinical isolate AG003, AAC(3)-II", "value": 4, "unit": "µg/mL"}, {"measurement": "IC50", "setting": "[13]", "value": 0.12, "unit": "µM"}, {"measurement": "IC50", "setting": "[14]", "value": 57, "unit": "µM"}, {"measurement": "MIC AG031 P. aer. APH(3′)-II", "setting": "[9]; clinical isolate AG031, APH(3′)-II", "value": "32 to 64", "unit": "µg/mL"}, {"measurement": "MIC AG032 P. aer. APH(3′)-II", "setting": "[9]; clinical isolate AG032, APH(3′)-II", "value": 32, "unit": "µg/mL"}]}
{"smiles": "CCC[C@@H]1C(CO)O[C@H](O[C@@H]2C(N)C[C@@H](N)C(O)[C@H]2O[C@@H]2O[C@H](CO)[C@H](O[C@H]3OC(CN)[C@@H](O)C(O)C3N)C2O)[C@@H](N)C1O", "note": "(stereo partly drawn) [Compound 079]", "values": [{"measurement": "MIC", "setting": "[1]; read-out: MIC AG290 E. cloacae", "value": 0.5, "unit": "µg/mL"}, {"measurement": "zone of inhibition at 25 nmol/disc", "setting": "[2]; Neisseria gonorrhoeae", "value": 16, "unit": "mm"}, {"measurement": "MIC", "setting": "[3]; ATCC25922, strain AG212 E. coli (ATCC25922), read-out: MIC AG212 E. coli", "value": 1, "unit": "µg/mL"}, {"measurement": "MIC", "setting": "[3]; clinical isolate AG160 WT, Table 2 (Example 4), read-out: MIC AG160 E. coli WT", "value": 1, "unit": "µg/mL"}, {"measurement": "MIC", "setting": "[3]; engineered strain pH430 WT, Table 2 (Example 4), read-out: MIC pH430 E. coli WT", "value": 0.5, "unit": "µg/mL"}, {"measurement": "MIC", "setting": "[5]; Klebsiella pneumoniae, read-out: MIC AG215 K. pneumon", "value": 0.5, "unit": "µg/mL"}, {"measurement": "MIC", "setting": "[6]; read-out: MIC AG037 E. coli APH(3′)-III", "value": "> 64", "unit": "µg/mL"}, {"measurement": "MIC", "setting": "[6]; read-out: MIC AG163 E. coli APH(3′)-I", "value": "> 64", "unit": "µg/mL"}, {"measurement": "MIC", "setting": "[6]; read-out: MIC AG166 E. coli APH(3′)-II", "value": "1 to 2", "unit": "µg/mL"}, {"measurement": "MIC", "setting": "[6]; read-out: MIC pH421 E. coli APH(3′)-I", "value": "> 32", "unit": "µg/mL"}, {"measurement": "MIC", "setting": "[6]; read-out: MIC pH422 E. coli APH(3′)-II", "value": 4, "unit": "µg/mL"}, {"measurement": "MIC", "setting": "[6]; read-out: MIC pH423 E. coli APH(3′)-VI", "value": 1, "unit": "µg/mL"}, {"measurement": "MIC", "setting": "[7]; Mycolicibacterium smegmatis, SZ380, read-out: MIC SZ380 M. smegmatis, strain SZ380 Mycobacterium smegmatis", "value": 0.5, "unit": "µg/mL"}, {"measurement": "MIC", "setting": "[8]", "value": "1 to 2", "unit": "µg/mL"}, {"measurement": "MIC", "setting": "[9]; strain AG220 Pseudomonas aeruginosa ATCC27853, read-out: MIC AG220 P. aerugin", "value": 4, "unit": "µg/mL"}]}
